Experiment [1] is described as follows: DPPH radicals scavenging assay. The conditions noted are these: for IC50: read-out: IC50 DPPH free radicals scavenging. (DPPH is a stable violet radical that fades when it is reduced.)
A short description of experiment [2]: ABTS free radicals scavenging assay. The conditions noted are these: for IC50: read-out: IC50 ABTS free radicals scavenging.
In experiment [3] the target is BChE (lyophilized equine serum) (Equus caballus, UniProt P81908). Put plainly: Butyrylcholinesterase inhibition, Ellman's assay. The format is biochemical. The conditions noted are these: for inhibition at 15.62 µg/mL / inhibition at 31.25 µg/mL / inhibition at 62.5 µg/mL / inhibition at 125 µg/mL / inhibition at 250 µg/mL / inhibition at 500 µg/mL / inhibition at 1000 µg/mL: read-out: (%) Inhibition BChE.
Sequence of BChE (lyophilized equine serum) (P81908 whole entry): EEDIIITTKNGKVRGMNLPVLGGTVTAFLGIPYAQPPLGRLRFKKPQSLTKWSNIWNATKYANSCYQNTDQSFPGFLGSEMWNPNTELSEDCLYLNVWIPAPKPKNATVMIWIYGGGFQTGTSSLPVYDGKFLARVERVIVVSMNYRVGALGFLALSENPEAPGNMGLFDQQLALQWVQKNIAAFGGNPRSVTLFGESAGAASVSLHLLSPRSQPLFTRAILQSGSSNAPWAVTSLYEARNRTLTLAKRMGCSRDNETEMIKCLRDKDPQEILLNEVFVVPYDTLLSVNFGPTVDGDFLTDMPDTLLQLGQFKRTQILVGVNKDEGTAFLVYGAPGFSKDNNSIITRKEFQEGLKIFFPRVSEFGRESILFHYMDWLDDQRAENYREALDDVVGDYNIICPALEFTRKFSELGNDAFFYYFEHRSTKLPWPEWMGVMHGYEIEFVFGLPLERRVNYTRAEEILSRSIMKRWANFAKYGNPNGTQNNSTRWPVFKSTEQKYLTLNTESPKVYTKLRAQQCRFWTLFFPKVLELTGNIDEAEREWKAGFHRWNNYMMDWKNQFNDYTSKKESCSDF

Experiment [4] concerns the target α-glucosidase (Saccharomyces cerevisiae, UniProt P53341). The experiment in a line: Michaelis–Menten kinetics of α-glucosidase inhibition. The format is biochemical. To be noted: Michaelis–Menten / Lineweaver–Burk.
The target of experiment [5] is acetylcholinesterase (Electrophorus electricus, UniProt O42275). The experiment in a line: Michaelis–Menten kinetics of acetylcholinesterase inhibition. The format is biochemical, electric eel. The conditions noted are these: Michaelis–Menten / Lineweaver–Burk.
Sequence of acetylcholinesterase (O42275 24-633): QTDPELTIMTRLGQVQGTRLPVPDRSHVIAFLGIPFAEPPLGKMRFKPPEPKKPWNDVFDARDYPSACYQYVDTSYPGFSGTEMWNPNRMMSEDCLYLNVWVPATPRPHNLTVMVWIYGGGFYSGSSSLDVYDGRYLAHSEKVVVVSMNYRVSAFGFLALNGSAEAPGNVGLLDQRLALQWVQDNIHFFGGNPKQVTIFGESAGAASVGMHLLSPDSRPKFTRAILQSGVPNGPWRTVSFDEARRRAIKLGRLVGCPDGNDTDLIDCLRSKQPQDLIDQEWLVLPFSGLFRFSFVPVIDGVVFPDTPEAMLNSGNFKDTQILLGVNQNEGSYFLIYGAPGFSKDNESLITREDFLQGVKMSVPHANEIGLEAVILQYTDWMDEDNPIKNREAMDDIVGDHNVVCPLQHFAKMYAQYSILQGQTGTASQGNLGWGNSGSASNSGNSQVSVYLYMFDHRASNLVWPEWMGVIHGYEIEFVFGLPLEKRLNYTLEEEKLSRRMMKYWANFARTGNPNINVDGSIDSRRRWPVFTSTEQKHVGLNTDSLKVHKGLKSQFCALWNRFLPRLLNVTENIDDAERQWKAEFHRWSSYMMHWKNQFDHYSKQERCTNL
Experiment [6] has as its target AChE electric eel (Electrophorus electricus, UniProt O42275). The experiment in a line: biochemical. The conditions noted are these: for inhibition at 15.62 µg/mL / inhibition at 31.25 µg/mL / inhibition at 62.5 µg/mL / inhibition at 125 µg/mL / inhibition at 250 µg/mL / inhibition at 500 µg/mL / inhibition at 1000 µg/mL: read-out: (%) Inhibition AChE.
Experiment [7] concerns the target butyrylcholinesterase (Equus caballus, UniProt P81908). The experiment in a line: Michaelis–Menten kinetics of butyrylcholinesterase inhibition. The format is biochemical, equine. To be noted: Michaelis–Menten / Lineweaver–Burk.
The target in experiment [8] is α-glucosidase from Saccharomyces cerevisiae (Saccharomyces cerevisiae, UniProt P53341). Put plainly: α-Glucosidase inhibition, chromogenic assay. The format is biochemical. To be noted: for inhibition at 15.62 µg/mL / inhibition at 31.25 µg/mL / inhibition at 62.5 µg/mL / inhibition at 125 µg/mL / inhibition at 250 µg/mL / inhibition at 500 µg/mL / inhibition at 1000 µg/mL: read-out: (%) Inhibition α-glucosidase.
Sequence of α-glucosidase from Saccharomyces cerevisiae (P53341 whole entry): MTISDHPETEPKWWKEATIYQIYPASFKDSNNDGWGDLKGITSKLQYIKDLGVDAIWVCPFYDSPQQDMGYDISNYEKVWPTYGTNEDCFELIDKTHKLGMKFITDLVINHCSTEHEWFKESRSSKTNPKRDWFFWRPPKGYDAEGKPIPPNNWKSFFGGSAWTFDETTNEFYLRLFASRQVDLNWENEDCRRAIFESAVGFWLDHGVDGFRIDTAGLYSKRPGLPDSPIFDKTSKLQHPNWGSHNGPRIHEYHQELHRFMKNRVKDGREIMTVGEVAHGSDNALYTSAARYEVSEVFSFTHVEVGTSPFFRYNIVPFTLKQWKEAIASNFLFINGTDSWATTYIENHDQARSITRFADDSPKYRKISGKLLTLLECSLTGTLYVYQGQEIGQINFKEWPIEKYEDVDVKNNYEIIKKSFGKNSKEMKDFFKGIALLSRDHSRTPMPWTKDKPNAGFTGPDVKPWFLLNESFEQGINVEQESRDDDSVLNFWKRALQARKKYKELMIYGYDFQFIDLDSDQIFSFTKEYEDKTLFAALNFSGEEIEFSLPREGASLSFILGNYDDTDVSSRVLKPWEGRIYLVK

The nature of experiment [9]: Hydrogen peroxide free radicals scavenging assay. The conditions noted are these: read-out: IC50 H2O2 free radicals scavenging.

Usually IC50 stands for the concentration that inhibits the measured activity by half. By inhibition is commonly meant the share of the control response that was lost under treatment.

Where “and” joins values, the source holds several entries; their conditions need not be identical. Equal values may be shown once. Where a name gives a salt, the structure may show the parent alone.

Sequence of α-glucosidase (P53341 whole entry): as above
Sequence of butyrylcholinesterase (P81908 whole entry): as the sequence (P81908 whole entry) above
Sequence of AChE electric eel (O42275 24-633): as the sequence (O42275 24-633) above

Turning to `C[C@](C=O)(c1ccccc1)[C@@H]1CC(=O)N(c2ccccc2)C1=O` [Compound 2, (R)-2-((S)-2,5-dioxo-1-phenylpyrrolidin-3-yl)-2-phenylpropanal], the “(%) Inhibition DPPH” value in experiment [1] (15.62 μg/mL) was 13.70±1.60 %; in [1] (31.25 μg/mL) it was 23.55 ± 1.85 %; in experiment [1] (62.5 μg/mL), 36.36 ± 0.91 %; in [1] (125 μg/mL) it was 50.07 ± 0.97 %; in experiment [1] (250 μg/mL) it was 61.31 ± 1.97 %; in experiment [1] (500 μg/mL), 70.34 ±1.10 %. In addition, in experiment [1] (1000 μg/mL), the “(%) Inhibition DPPH” value was determined as 77.04 ± 1.61 %. Further, the IC50 in experiment [1] was 407 µM; in [2] it was 498 µM; in experiment [3], 358 µM; in experiment [6], 423 µM; in experiment [8] it was 472 µM. Also, the “(%) Inhibition ABTS” value is on record as 12.33±1.67 % in [2] (15.62 μg/mL); 22.83±1.21 % in experiment [2] (31.25 μg/mL); 38.10±0.90 % in [2] (62.5 μg/mL); 49.31±0.58 % in [2] (125 μg/mL); 59.87±0.85 % in experiment [2] (250 μg/mL); 68.51±0.54 % in experiment [2] (500 μg/mL). In addition, in experiment [2] (1000 μg/mL), the “(%) Inhibition ABTS” value is on record as 75.76±0.61 %. Further, the results for the inhibition at 15.62 µg/mL in experiment [3], in [6] and in experiment [8] were 23.4 ± 0.82%, 21.3 ± 0.87% and 28.8 ± 1.5%, respectively. For the same compound, the inhibition at 31.25 µg/mL in experiment [3] stood at 31.2 ± 0.47%; in experiment [6], 27.2 ± 0.47%; in experiment [8], 34 ± 0.35%. The inhibition at 62.5 µg/mL was 42 ± 0.97% in [3], 39.1 ± 0.54% in experiment [6] and 41.9 ± 0.96% in experiment [8]. The inhibition at 125 µg/mL in experiment [3] came out at 51.9 ± 0.45%; in experiment [6] it was 48 ± 0.3%; in [8], 47.8 ± 1.5%. In addition, the inhibition at 250 µg/mL in experiment [3] was found to be 62.12 ± 0.54%; in experiment [6], 59.9 ± 0.6%; in experiment [8], 55.8 ± 0.71%. In addition, the inhibition at 500 µg/mL worked out at 72.54 ± 0.6% in [3], 70.5 ± 0.9% in [6] and 65.08 ± 0.47% in [8]. Also, the inhibition at 1000 µg/mL is 79 ± 1.03% in experiment [3], 77.23 ± 0.22% in [6] and 71.8 ± 1.24% in experiment [8]. Also, in experiment [4], the “Vmax, α-glucosidase” value turned out to be 3.542 µg/min. In addition, in experiment [5], the “Vmax, acetylcholinesterase inhibition” value was found to be 78.65 µg/min. In experiment [7], the “Vmax, butyrylcholinesterase inhibition” value was 2.867 µg/min.

As to `COc1ccc2c3c1O[C@H]1C[C@@H](O)C=C[C@@]31CCN(C)C2` [Galanthamine (Std.), galanthamine hydrobromide, reference compound], in [3], the inhibition at 15.62 µg/mL is 49.7 ± 0.68%, the inhibition at 31.25 µg/mL amounted to 59.33 ± 0.49%, the inhibition at 62.5 µg/mL was determined as 69.03 ± 0.23% and the inhibition at 125 µg/mL came to 73.23 ± 0.4%. Also, in experiment [3], the inhibition at 250 µg/mL is 80.74 ± 0.68%, the inhibition at 500 µg/mL is 86.9 ± 0.48% and the inhibition at 1000 µg/mL amounted to 93.9 ± 0.96%. Moreover, the “Vmax, butyrylcholinesterase inhibition” value in experiment [7] (listed as galantamine) was 2.566 µg/min and 2.641 µg/min.

Turning to `C[C@H]1O[C@H](O[C@H]2[C@H](O)[C@@H](O)[C@@H](O[C@H]3[C@H](O)[C@@H](O)C(O)O[C@@H]3CO)O[C@@H]2CO)[C@H](O)[C@@H](O)[C@@H]1N[C@H]1C=C(CO)[C@@H](O)[C@H](O)[C@H]1O` (some centres unmarked) [Acarbose (Std), acarbose, reference compound], in experiment [4], the “Vmax, α-glucosidase” value is 2.639 µg/min and 2.616 µg/min. In addition, in experiment [8], the inhibition at 15.62 µg/mL worked out at 41.8 ± 0.37%, the inhibition at 31.25 µg/mL turned out to be 49.9 ± 0.48%, the inhibition at 62.5 µg/mL worked out at 57.7 ± 0.88% and the inhibition at 125 µg/mL is 63.9 ± 1.27%. Moreover, in experiment [8], the inhibition at 250 µg/mL stood at 72 ± 2.01%, the inhibition at 500 µg/mL came out at 75.1 ± 1.04% and the inhibition at 1000 µg/mL turned out to be 83.6 ± 1.67%.

On to `O=CC1([C@@H]2CC(=O)N(c3ccccc3)C2=O)CCCCC1` [Compound 1, (S)-1-(2,5-dioxo-1-phenylpyrrolidin-3-yl) cyclohexanecarbaldehyde], for which the IC50 came to 826 µM in experiment [9]; 298 µM in [1]; 333 µM in experiment [2]; 277 µM in experiment [3]; 343 µM in [6]; 158 µM in experiment [8]. The “(%) Inhibition DPPH” value amounted to 28.23 ± 1.71 % in experiment [1] (15.62 μg/mL); 34.05 ± 1.40 % in experiment [1] (31.25 μg/mL); 44.66 ± 0.88 % in experiment [1] (62.5 μg/mL); 58.50 ± 1.61 % in experiment [1] (125 μg/mL); 68.40 ± 1.97 % in experiment [1] (250 μg/mL); 72.83 ± 1.89 % in experiment [1] (500 μg/mL). The “(%) Inhibition DPPH” value in [1] (1000 μg/mL) is on record as 79.53 ± 1.92 %. Besides, the “(%) Inhibition ABTS” value was 16.60±1.63 % in [2] (15.62 μg/mL); 26.87±0.85 % in [2] (31.25 μg/mL); 40.51±0.54 % in [2] (62.5 μg/mL); 54.49±0.60 % in experiment [2] (125 μg/mL); 61.22±1.28 % in experiment [2] (250 μg/mL); 67.31±0.58 % in experiment [2] (500 μg/mL). Besides, in [2] (1000 μg/mL), the “(%) Inhibition ABTS” value was 79.87±1.27 %. Moreover, the inhibition at 15.62 µg/mL in [3] is 15.4 ± 0.9%; in experiment [6], 12.8 ± 1.5%; in experiment [8] it was 28 ± 0.35%. The figures for the inhibition at 31.25 µg/mL in experiment [3], in experiment [6] and in experiment [8] were 26.1 ± 1.04%, 23.9 ± 0.88% and 34.4 ± 0.43%, respectively. The inhibition at 62.5 µg/mL in experiment [3] stood at 44.6 ± 0.63%; in [6], 41.1 ± 0.47%; in [8], 44.9 ± 1.55%. The inhibition at 125 µg/mL came out at 59.8 ± 1.21% in experiment [3], 57.03 ± 0.35% in experiment [6] and 58.8 ± 0.71% in [8]. For the same compound, the inhibition at 250 µg/mL in experiment [3] amounted to 69.7 ± 0.91%; in experiment [6], 68.6 ± 1.06%; in experiment [8] it was 68.8 ± 1.24%. For the same compound, the inhibition at 500 µg/mL in experiment [3] was found to be 75.76 ± 0.61%; in experiment [6] it was 72.76 ± 0.71%; in experiment [8] it was 72.9 ± 0.96%. For the same compound, the inhibition at 1000 µg/mL in experiment [3] is 81.49 ± 0.6%; in experiment [6], 78.42 ± 0.43%; in experiment [8], 79.6 ± 1.12%. The “Vmax, α-glucosidase” value in experiment [4] is 2.360 µg/min. Besides, in experiment [5], the “Vmax, acetylcholinesterase inhibition” value worked out at 84.93 µg/min. Moreover, the “Vmax, butyrylcholinesterase inhibition” value in experiment [7] is on record as 1.553 µg/min.

For `O=C1O[C@H]([C@@H](O)CO)C(O)=C1O` [Ascorbic acid (Std.), ascorbic acid, reference compound], the “(%) Inhibition DPPH” value is 48.70 ± 0.90% in experiment [1] (15.62 μg/mL); 55.23 ± 1.21% in [1] (31.25 μg/mL); 61.40 ± 1.85% in experiment [1] (62.5 μg/mL); 69.66 ± 1.36% in experiment [1] (125 μg/mL); 77.00 ± 1.73% in experiment [1] (250 μg/mL); 83.96 ± 1.91% in experiment [1] (500 μg/mL). Further, the “(%) Inhibition DPPH” value in [1] (1000 μg/mL) was determined as 89.00 ± 0.57%. In addition, the IC50 in [1] was found to be 96.5 µM; in [2], 85.2 µM. The “(%) Inhibition ABTS” value in experiment [2] (15.62 μg/mL) is recorded as 46.00±0.58%; in [2] (31.25 μg/mL) it was 52.67±0.89%; in experiment [2] (62.5 μg/mL) it was 58.00±1.15%; in [2] (125 μg/mL), 67.00±0.00%; in experiment [2] (250 μg/mL) it was 75.03±0.23%; in experiment [2] (500 μg/mL), 81.70±1.60%. Besides, in experiment [2] (1000 μg/mL), the “(%) Inhibition ABTS” value turned out to be 87.73±0.78%.

Values taken from article PMC7285812 (Drug Design, Development and Therapy, 2020).
